The values below come from patent US9944749B2, “Polycarbonates” (Valspar Sourcing, Inc., priority 2012, dated 2018).

Read-outs that look alike come from different tables or passages of the source.

The test system of one experiment is MCF-7, clone WS8, cells. The experiment in a line: MCF-7 cell proliferation assay of estrogenic activity. Format: cell-based, human.
The target of a further experiment is T1, human estrogen receptor (Homo sapiens, UniProt P03372).
T1 sequence (P03372 1-595): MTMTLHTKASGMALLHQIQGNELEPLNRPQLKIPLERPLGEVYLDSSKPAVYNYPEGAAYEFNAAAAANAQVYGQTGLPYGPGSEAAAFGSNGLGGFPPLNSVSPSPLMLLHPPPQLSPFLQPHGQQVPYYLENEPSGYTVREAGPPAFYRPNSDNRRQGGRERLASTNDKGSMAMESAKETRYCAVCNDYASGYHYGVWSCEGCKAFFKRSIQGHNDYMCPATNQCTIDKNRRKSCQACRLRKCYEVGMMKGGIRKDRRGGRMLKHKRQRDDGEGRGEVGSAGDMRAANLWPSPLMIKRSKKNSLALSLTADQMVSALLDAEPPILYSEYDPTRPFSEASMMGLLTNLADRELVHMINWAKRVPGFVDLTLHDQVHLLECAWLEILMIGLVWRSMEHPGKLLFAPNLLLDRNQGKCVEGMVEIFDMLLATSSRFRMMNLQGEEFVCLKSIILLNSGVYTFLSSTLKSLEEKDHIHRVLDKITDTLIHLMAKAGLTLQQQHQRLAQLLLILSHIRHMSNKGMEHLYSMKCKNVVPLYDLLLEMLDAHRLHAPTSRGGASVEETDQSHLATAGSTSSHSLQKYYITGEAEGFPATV
Nature of the experiment: suitable in vitro assay whose results are directly correlated to the MCF-7 cell proliferation assay. To be noted: in vitro assay correlated to MCF-7 assay through common reference compounds. Format: cell-based.

Regarding `C[C@]12CC[C@@H]3c4ccc(O)cc4CC[C@H]3[C@@H]1CC[C@@H]2O` [17β-estradiol], the “Log RPE” value in the experiment with MCF-7, clone WS8, cells (logarithmic (base 10) Relative Proliferative Effect relative to 17-beta estradiol, cell proliferation measured as total DNA, values 'expected or measured') was 2.00. For the compound `Cc1cc(Cc2cc(C)c(O)c(C)c2)cc(C)c1O` [Structure 6, 4,4′-methylenebis(2,6-dimethylphenol)], the estrogenic activity entry on human estrogen receptor is listed as “do not exhibit appreciable estrogenic activity”. Same read-out and setting: the result for `CC(C)(C)c1cc(O)c(C(C)(C)C)cc1O` [Structure 12, 2,5-di-t-butylhydroquinone] reads “do not exhibit appreciable estrogenic activity”; that for `CCCC(c1cc(C(C)(C)C)c(O)cc1C)c1cc(C(C)(C)C)c(O)cc1C` [Structure 7, 4,4′-butylidenebis(2-t-butyl-5-methylphenol)], “do not exhibit appreciable estrogenic activity”. The same measure, in the same setting: the result for `CC(C)(C)c1cc(Cc2cc(C(C)(C)C)c(O)c(C(C)(C)C)c2)cc(C(C)(C)C)c1O` [Structure 8, 4,4′-methylenebis(2,6-di-t-butylphenol)] reads “do not exhibit appreciable estrogenic activity”; that for `Cc1cc(Cc2cc(C)cc(C(C)(C)C)c2O)c(O)c(C(C)(C)C)c1` [Structure 9], “do not exhibit appreciable estrogenic activity”. For `Oc1ccc(Cc2ccc(O)cc2)cc1` [Bisphenol F], in the experiment on MCF-7, clone WS8, cells, the “Log RPE” value is recorded as −2.
